Results reported in publication PMC10482825 (Scientific Reports, 2023).
≈ marks a conversion by molar mass, not a printed value. Where a SMILES comes first, the peptide text is derived from it.

Tests used:
B. subtilis [1] = format: cell-based, Bacillus subtilis (ATCC, 11774); details: micro-broth dilution, 3 h peptide treatment then MHB 18 h, 37 °C, OD 600 nm
From the text: (§1) The microbial strains used in this study were Bacillus subtilis (ATCC, 11774), Candida albicans (TIMM, 1768), Enterococcus faecalis (ATCC, 33186), Escherichia coli (ATCC, 11775), Klebsiella pneumoniae (ATCC, 13883), Methicillin-resistant Staphylococcus aureus (ATCC, BAA-41), Pseudomonas aeruginosa (ATCC, 10145), Salmonella enterica (ATCC, 14028), Serratia marcescens (ATCC, 13880), Staphylococcus aureus (ATCC, 25923) and Vibrio parahaemolyticus (ATCC, 17802). All microbial strains were cultivated overnight at 37 °C and 200 rpm, then subcultured and incubated for 3 h under the same incubation conditions to obtain the mid-logarithmic growth phase. The cultivated cells were washed twice with 10 mM Tris–HCl containing 5 mM D-glucose at pH 7.4 and suspended in the same buffer to be used in different assays, as previously described.
(§2) As a conclusive quantitative assessment, broth microtiter assay was used to determine the MIC values of each cryptide against B. subtilis, MRSA, S. enterica, P. aeruginosa, V. parahaemolyticus and C. albicans by following the guidelines of the Clinical and Laboratory Standards Institute (CLSI)[67], with slight modifications. Eighty microliters of 5 × 10^4 CFU/ml of each pathogen were dispensed into a 96-well polypropylene microtiter plate. The wells were then treated with 20 µl of serially diluted cryptides for 3 h at 37 °C. Gentamicin was used for positive controls at 0.2 mg/ml while an equivalent volume of acidified water was used for negative controls. The plates were then topped up with a final concentration of 1 × Mueller Hinton Broth (MHB) and incubated for 18 h under the same incubation conditions. MIC was detected as the lowest concentration of each cryptide that prevents the optically detectable microbial growth at OD = 600 nm.

MRSA [2] = format: cell-based, Methicillin-resistant Staphylococcus aureus (ATCC, BAA-41); details: micro-broth dilution, 3 h peptide treatment then MHB 18 h, 37 °C, OD 600 nm
From the text: as §1, §2

S. enterica [3] = format: cell-based, Salmonella enterica (ATCC, 14028); details: micro-broth dilution, 3 h peptide treatment then MHB 18 h, 37 °C, OD 600 nm
From the text: as §1, §2

P. aeruginosa [4] = format: cell-based, Pseudomonas aeruginosa (ATCC, 10145); details: micro-broth dilution, 3 h peptide treatment then MHB 18 h, 37 °C, OD 600 nm
From the text: as §1, §2

C. albicans [5] = format: cell-based, Candida albicans (TIMM, 1768); details: micro-broth dilution, 3 h peptide treatment then MHB 18 h, 37 °C, OD 600 nm
From the text: as §1, §2

[6] = system: S. enterica mature biofilm; assay: Antibiofilm microtiter plate assay (mature biofilm, crystal violet); format: cell-based, Salmonella enterica (ATCC, 14028); details: tested 12.5-200 µM
Protocol: The antibiofilm activities of the selected cryptides against S. enterica and MRSA mature biofilms were examined by microtiter plate assay as previously described, with slight modification. During the mid-logarithmic phase, S. enterica and MRSA were suspended at the density of 1.7 × 10^8 CFU/ml in MHB. Then 100 µl of each bacterial suspension was dispensed into a vinyl 96 U-shaped-well plate and incubated overnight at 37 °C. The mature biofilms were washed with 10 mM Tris–HCl containing 5 mM D-glucose at pH 7.4 and treated for 8 h with 100 µl of two-fold serially diluted cryptides, under the same incubation conditions. A sterile MHB medium was used as the positive control while an equivalent volume of acidified water was used to treat the negative controls. The treated biofilms were washed twice with the same washing buffer and stained with 0.1% crystal violet for 15 min followed by rinsing with sterile distilled water twice and then dried for 30 min at 37 °C. The stain was dissolved with 33% acetic acid and transferred to an optically clear 96-well flat bottom plate which was then measured at 600 nm.
Table S.4 Antibiofilm activities of the selected Cryptides against S. enterica and MRSA. Microbial cells were suspended at 1.7 X 10^8 CFU/ml density, during the mid-logarithmic phase in MHB. Then, 96 U-shaped -well plates were inoculated with 100 µl of microbial suspension and incubated for 48 h at 37 °C. The formed biofilms were washed with 10 mM Tris-HCl and treated with 100 µl of different concentrations of each peptide for 24 h. The treated biomasses were washed and fixed with methanol for 15 min at -20 °C before staining with 0.1 % crystal violet. The stained biofilms were dissolved in 100 µl of 33 % acetic acid and the quantities of crystal violet stains were determined by measuring absorbance at 600 nm as an indicator of the remaining biomass after treatment. Untreated cells were used as negative control [indicating 100 % biofilm integrity] while the sterile medium was used as a positive control [indicating 0 % biofilm integrity].
S. enterica MRSA S. enterica MRSA S. enterica MRSA S. enterica MRSA S. enterica MRSA

Caco-2 = format: cell-based, human; details: 24 h, serum-free medium, MTT, 37 °C, 5% CO2; mean ± SD
Protocol: (§3) The used mammalian cell lines in our study were colorectal adenocarcinoma (Caco2, ATCC-HTB-37), colorectal carcinoma (HCT 116, ATCC-CCL-247), lung carcinoma (A549, ATCC- CCL-185), cervical cancer cells (HeLa, ATCC-CCL-2), neuroblastoma (SH-SY5Y, ATCC- CRL-2266), rhabdomyosarcoma (RD, ATCC- CCL-136) and human embryonic kidney cells (HEK 293, ATCC- CRL-1573). All the cells were maintained into Dulbecco’s Modified Eagle’s Medium (DMEM) supplemented with 10% heat-inactivated fetal bovine serum, 2 mM L-Glutamine, 100 U/ml penicillin–streptomycin (Pen/Strep) at 37 °C in 5% CO2 humidified incubator.
(§4) First, the cytotoxic effect of 24 h serum deprivation on all the selected cell lines was evaluated by MTT assay, following standard protocols. Briefly, cells were seeded and maintained at 37 °C and 5% CO2 in 24-well plates until they reached 75–80% confluency (zero time). Following washing twice with 1X PBS, cells were incubated in a serum-free medium for 24 h, under the same incubation conditions. The cell viability percentages were calculated and compared to zero time as 100% viability to nullify any possible effects of serum deprivation. Thence, the cell viability percentage of each cell line in response to 24 h treatment with different concentrations of each cryptide in serum-free medium was calculated. […] All the measured cell viability percentages were normalised against the corresponding negative controls.

HeLa = format: cell-based, human; details: 24 h, serum-free medium, MTT, 37 °C, 5% CO2; mean ± SD
Protocol: as §3, §4

[7] = format: cell-based; details: 24 h, serum-free medium, MTT, 37 °C, 5% CO2; mean ± SD; read-out: IC50 (µM) A459
Protocol: as §3, §4

RD = format: cell-based; details: 24 h, serum-free medium, MTT, 37 °C, 5% CO2; mean ± SD
Protocol: as §3, §4

HEK-293 = assay: MTT cytotoxicity on normal cells; format: cell-based, human; details: 25 µM (highest tested concentration), 24 h, serum-free medium
Protocol: as §3, §4

B. subtilis [8] = format: cell-based, Bacillus subtilis (ATCC, 11774); details: 20 µl of wells without growth on agar, 18 h, 37 °C
MRSA [9] = format: cell-based, Methicillin-resistant Staphylococcus aureus (ATCC, BAA-41); details: 20 µl of wells without growth on agar, 18 h, 37 °C
S. enterica [10] = format: cell-based, Salmonella enterica (ATCC, 14028); details: 20 µl of wells without growth on agar, 18 h, 37 °C
P. aeruginosa [11] = format: cell-based, Pseudomonas aeruginosa (ATCC, 10145); details: 20 µl of wells without growth on agar, 18 h, 37 °C
C. albicans [12] = format: cell-based, Candida albicans (TIMM, 1768); details: 20 µl of wells without growth on Sabouraud 4% Dextrose Agar, 18 h, 37 °C
HCT 116 = format: cell-based, human; details: 24 h, serum-free medium, MTT, 37 °C, 5% CO2; mean ± SD
Protocol: as §3, §4

SH-SY5Y = format: cell-based; details: 24 h, serum-free medium, MTT, 37 °C, 5% CO2; mean ± SD
Protocol: as §3, §4

human RBCs = assay: Hemolytic assay; format: cell-based; details: 2% RBCs in PBS, 2 h, 37 °C, supernatant at 450 nm, 0.1% TritonX-100 = maximum; highest tested concentration 100 µM
Protocol: All methods were carried out in accordance with the Declaration of Helsinki, and the Research Ethics Committee approved all experimental protocols at Sunway University (approval no. PGSUREC2020/005). A human blood sample was collected from a healthy person for this assay upon obtaining informed consent. The fresh blood sample was centrifuged at 3700 g for 5 min at RT. The supernatant (serum) was removed and red blood cells (RBCs) were washed three times with 1X PBS and diluted to a final concentration of 2% (PBS—137 mM NaCl, 2.7 mM KCl, 10 mM Na2HPO4, 1.76 mM KH2PO4). Cells were stored at 4 °C, and used within 5 h.
The hemolytic activities of the identified cryptides were evaluated as previously described. The prepared RBCs were treated with different peptide concentrations for 2 h at 37 °C. The treated RBCs were centrifuged, under the same centrifugation conditions, and the supernatants were transferred to a 96-well plate and measured at 450 nm.

[13] = system: the different tested pathogens; format: cell-based; details: span over tested pathogens, undetected values disregarded
From the text: as §1, §2

Row | Structure (SMILES) | MIC (µM) B. subtilis (B. subtilis [1]) [µM] | MIC (µM) MRSA (MRSA [2]) [µM] | MIC (µM) S. enterica (S. enterica [3]) [µM] | MIC (µM) P. aeruginosa (P. aeruginosa [4]) [µM] | MIC (µM) C. albicans (C. albicans [5]) [µM] | Minimal biofilm eradication concentration (MBEC) S. enterica [6] [µM] | IC50 (Caco-2) [µM] | IC50 (HeLa) [µM] | IC50 [7] [µM] | IC50 (RD) [µM] | Cell death of HEK-293 (HEK-293) | MBC (µM) B. subtilis (B. subtilis [8]) [µM] | MBC (µM) MRSA (MRSA [9]) [µM] | MBC (µM) S. enterica (S. enterica [10]) [µM] | MBC (µM) P. aeruginosa (P. aeruginosa [11]) [µM] | MFC (µM) C. albicans (C. albicans [12]) [µM] | IC50 (SH-SY5Y) [µM] | other results
1 | CC(C)C[C@H](NC(=O)[C@H](C)NC(=O)[C@H](Cc1ccccc1)NC(=O)[C@@H](N)Cc1ccccc1)C(=O)N[C@@H](CCC(N)=O)C(=O)N[C@@H](CS)C(=O)N[C@@H](C)C(=O)N[C@@H](C)C(=O)N[C@@H](CCCCN)C(=O)N[C@H](C(=O)N[C@@H](CCCNC(=N)N)C(=O)N[C@H](C(=O)N[C@@H](CCCNC(=N)N)C(=O)N[C@@H](CCCNC(=N)N)C(=O)N[C@H](C(=O)O)C(C)C)[C@@H](C)O)[C@@H](C)O [AD12] (H-FFALQCAAKTRTRRV-OH) | 0.78 (≈ 1.38 µg/mL) | 6.25 (≈ 11.1 µg/mL) | 0.78 (≈ 1.38 µg/mL) | 12.5 (≈ 22.1 µg/mL) | 12.5 (≈ 22.1 µg/mL) | 200 | 4.35 | 8.5 ± 0.5 | 9.4 ± 1 | 159 | less than 10% | 0.78 (≈ 1.38 µg/mL) | 25 (≈ 44.2 µg/mL) | 0.78 (≈ 1.38 µg/mL) | 25 (≈ 44.2 µg/mL) | 12.5 (≈ 22.1 µg/mL) | – | –
2 | N.N.[Cl][Pt][Cl] [Cisplatin, reference compound] | – | – | – | – | – | – | – | 63.6 ± 0.4 | 15.3 ± 0.6 | 74 ± 1.2 | – | – | – | – | – | – | 54.4 ± 0.8 | IC50 (µM) HCT 116 (HCT 116): resistant; Hemolysis of human RBCs at 100 µM (human RBCs): less than 10%
3 | CC(C)[C@H](NC(=O)[C@H](CO)NC(=O)[C@H](Cc1ccccc1)NC(=O)[C@H](CC(N)=O)NC(=O)[C@H](CS)NC(=O)[C@H](Cc1ccc(O)cc1)NC(=O)[C@H](Cc1c[nH]cn1)NC(=O)CN)C(=O)N[C@H](C(=O)N1CCC[C@H]1C(=O)N[C@@H](CCCCN)C(=O)N[C@@H](Cc1ccccc1)C(=O)N[C@@H](CCCCN)C(=O)N[C@@H](CCCNC(=N)N)C(=O)N[C@@H](Cc1c[nH]c2ccccc12)C(=O)O)[C@@H](C)O [AD8] (H-GHYCNFSVTPKFKRW-OH) | 0.78 (≈ 1.46 µg/mL) | 3.12 (≈ 5.83 µg/mL) | 0.78 (≈ 1.46 µg/mL) | 25 (≈ 46.8 µg/mL) | 6.25 (≈ 11.7 µg/mL) | 200 | 4.4 ± 0.5 | 42.6 ± 0.3 | 7.3 ± 0.5 | 27.2 ± 0.4 | less than 10% | 0.78 (≈ 1.46 µg/mL) | 12.5 (≈ 23.4 µg/mL) | 0.78 (≈ 1.46 µg/mL) | 50 (≈ 93.5 µg/mL) | 6.25 (≈ 11.7 µg/mL) | 23.3 ± 0.7 | MBC values, range against the different tested pathogens [13]: 0.78 ~ 50 µM; MIC values, range against the different tested pathogens [13]: 0.78 ~ 25 µM
